Measurements taken from patent publication US10577363B2, “Substituted piperidine compounds” (EPIZYME, INC., priority 2014, dated 2020).

Legend:
[1] = target: T1, SMYD3 (Homo sapiens (Human), UniProt Q9H7B4); experiment: SMYD3 biochemical assay (SPA, 3H-SAM methylation of MEKK2 protein substrate); details: read-out: SMYD3 Biochem IC50 (μM)*
Summary of the method: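 Native full-length human SMYD3 (E. coli-expressed, tags removed) was preincubated with compound for 30 min at room temperature in 25 mM Tris-Cl pH 8.0, 1 mM TCEP, 0.005% BSG, 0.005% Tween 20. Reaction was started with 3H-SAM plus GST-MEKK2, quenched with 100 uM unlabeled SAM, and read by SPA scintillation counting.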

[2] = target: T1, SMYD3; experiment: SMYD3 cell assay (Trimethyl-MEKK2 In-Cell Western in 293T/17 cells); assay type: cell-based; details: 293T/17 cells; read-out: SMYD3 Cell IC50 (μM)*
Summary of the method: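 In-Cell Western ratio of trimethyl-Lys260 MEKK2 to anti-flag signal; percent inhibition from DMSO and maximum-inhibition controls, IC50 by non-linear regression, triplicates.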

T1 sequence (Q9H7B4 whole entry): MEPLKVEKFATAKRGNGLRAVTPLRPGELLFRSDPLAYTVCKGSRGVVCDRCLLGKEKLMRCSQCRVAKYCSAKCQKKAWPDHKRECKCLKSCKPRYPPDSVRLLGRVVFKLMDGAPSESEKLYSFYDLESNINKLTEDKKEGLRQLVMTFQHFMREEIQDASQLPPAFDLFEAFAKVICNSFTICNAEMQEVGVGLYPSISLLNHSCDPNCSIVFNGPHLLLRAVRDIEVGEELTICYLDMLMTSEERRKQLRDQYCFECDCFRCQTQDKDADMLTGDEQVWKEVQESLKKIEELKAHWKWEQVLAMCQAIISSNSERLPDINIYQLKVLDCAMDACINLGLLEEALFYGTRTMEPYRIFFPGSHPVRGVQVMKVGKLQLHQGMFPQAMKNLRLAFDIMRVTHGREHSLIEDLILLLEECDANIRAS

Compound | IC50 [1] [µM] | IC50 [2] [µM]
C[C@@H]1C[C@H](NC(=O)c2cc(C3CC3)on2)CCN1S(=O)(=O)c1c[nH]cn1 [compound 428, N-((2R,4R)-1-((1H-imidazol-4-yl)sulfonyl)-2-methylpiperidin-4-yl)-5-cyclopropylisoxazole-3-carboxamide] | 0.732 | 2.58
CC(=O)Nc1ccc(S(=O)(=O)N2[C@@H]3CC[C@H]2C[C@H](NC(=O)c2cc(C4CC4)on2)C3)cc1 [compound 430, N-((1R,3s,5S)-8-((4-acetamidophenyl)sulfonyl)-8-azabicyclo[3.2.1]octan-3-yl)-5-cyclopropylisoxazole-3-carboxamide] | 3.66 | 4.52
O=C(Nc1ccc(S(=O)(=O)N2[C@@H]3CC[C@H]2C[C@@H](NC(=O)c2cc(C4CC4)on2)C3)cc1)c1ccncc1 [compound 431, 5-cyclopropyl-N-((1R,3r,5S)-8-((4-(isonicotinamido)phenyl)sulfonyl)-8-azabicyclo[3.2.1]octan-3-yl)isoxazole-3-carboxamide] | > 10 | > 10
O=C1Cc2cc(S(=O)(=O)N3[C@@H]4CC[C@H]3C[C@@H](NC(=O)c3cc(C5CC5)on3)C4)c(Cl)cc2N1 [compound 432, N-((1R,3r,5S)-8-((6-chloro-2-oxoindolin-5-yl)sulfonyl)-8-azabicyclo[3.2.1]octan-3-yl)-5-cyclopropylisoxazole-3-carboxamide] | 6.3 | > 10
O=C1Cc2cc(S(=O)(=O)N3[C@@H]4CC[C@H]3C[C@@H](NC(=O)c3cc(C5CC5)on3)C4)ccc2N1 [compound 433, 5-cyclopropyl-N-((1R,3r,5S)-8-((2-oxoindolin-5-yl)sulfonyl)-8-azabicyclo[3.2.1]octan-3-yl)isoxazole-3-carboxamide] | 4.19 | > 10
O=C(N[C@H]1C[C@H]2CC[C@@H](C1)N2S(=O)(=O)c1ccc2[nH]c(=O)[nH]c2c1)c1cc(C2CC2)on1 [compound 434, 5-cyclopropyl-N-((1R,3r,5S)-8-((2-oxo-2,3-dihydro-1H-benzo[d]imidazol-5-yl)sulfonyl)-8-azabicyclo[3.2.1]octan-3-yl)isoxazole-3-carboxamide] | 2.41 | > 10
O=C(N[C@@H]1C[C@H]2CC[C@@H](C1)N2S(=O)(=O)CCN1CCCC1)c1cc(C2CC2)on1 [compound 435, 5-cyclopropyl-N-((1R,3s,5S)-8-((2-(pyrrolidin-1-yl)ethyl)sulfonyl)-8-azabicyclo[3.2.1]octan-3-yl)isoxazole-3-carboxamide] | 2 | 5.59
O=C(N[C@H]1CCN(S(=O)(=O)CCN2CCCC2)[C@@H](Cc2ccccc2)C1)c1cc(C2CC2)on1 [compound 437, N-((2S,4S)-2-benzyl-1-((2-(pyrrolidin-1-yl)ethyl)sulfonyl)piperidin-4-yl)-5-cyclopropylisoxazole-3-carboxamide] | 1 | 4.62
O=C(N[C@@H]1CCN(S(=O)(=O)CCCN2CCOCC2)[C@@H](Cc2ccccc2)C1)c1cc(C2CC2)on1 [compound 438, N-((2S,4R)-2-benzyl-1-((3-morpholinopropyl)sulfonyl)piperidin-4-yl)-5-cyclopropylisoxazole-3-carboxamide] | 9.18 | > 10
O=C(N[C@@H]1CCN(S(=O)(=O)CCCN2CCOCC2)[C@H](Cc2ccccc2)C1)c1cc(C2CC2)on1 [compound 439, N-((2R,4R)-2-benzyl-1-((3-morpholinopropyl)sulfonyl)piperidin-4-yl)-5-cyclopropylisoxazole-3-carboxamide] | > 10 | > 10
O=C(N[C@@H]1C[C@H]2CC[C@@H](C1)N2S(=O)(=O)CCN1CCOCC1)c1cc(C2CC2)on1 [compound 440, 5-cyclopropyl-N-((1R,3s,5S)-8-((2-morpholinoethyl)sulfonyl)-8-azabicyclo[3.2.1]octan-3-yl)isoxazole-3-carboxamide] | > 10 | > 10
O=C(N[C@H]1C[C@H]2CC[C@@H](C1)N2S(=O)(=O)CCN1CCOCC1)c1cc(C2CC2)on1 [compound 441, 5-cyclopropyl-N-((1R,3r,5S)-8-((2-morpholinoethyl)sulfonyl)-8-azabicyclo[3.2.1]octan-3-yl)isoxazole-3-carboxamide] | 1.61 | 3.67
O=C(NC1CC2CCCC(C1)N2S(=O)(=O)CCN1CCCC1)c1cc(C2CC2)on1 (stereo not drawn) [compound 442, 5-cyclopropyl-N-(9-((2-(pyrrolidin-1-yl)ethyl)sulfonyl)-9-azabicyclo[3.3.1]nonan-3-yl)isoxazole-3-carboxamide] | 1.11 | 4.55
O=C(NC1CC2CCCC(C1)N2S(=O)(=O)CCN1CCOCC1)c1cc(C2CC2)on1 (stereo not drawn) [compound 443, 5-cyclopropyl-N-(9-((2-morpholinoethyl)sulfonyl)-9-azabicyclo[3.3.1]nonan-3-yl)isoxazole-3-carboxamide] | > 10 | > 10
CNCCCS(=O)(=O)N1CC[C@H](NC(=O)c2cc(C3CC3)on2)C[C@@H]1C [compound 444, 5-cyclopropyl-N-((2S,4S)-2-methyl-1-((3-(methylamino)propyl)sulfonyl)piperidin-4-yl)isoxazole-3-carboxamide] | 0.0131 | 0.181
CNc1ccc(S(=O)(=O)N2CC[C@H](NC(=O)c3cc(C4CC4)on3)C[C@@H]2C)cn1 [compound 446, 5-cyclopropyl-N-((2S,4S)-2-methyl-1-((6-(methylamino)pyridin-3-yl)sulfonyl)piperidin-4-yl)isoxazole-3-carboxamide] | 0.89 | 2.25
CNc1ccc(S(=O)(=O)N2CC[C@@H](NC(=O)c3cc(C4CC4)on3)C[C@H]2C)cn1 [compound 449, 5-cyclopropyl-N-((2R,4R)-2-methyl-1-((6-(methylamino)pyridin-3-yl)sulfonyl)piperidin-4-yl)isoxazole-3-carboxamide] | > 10 | > 10
CC(C)CNc1ccc(S(=O)(=O)N2CC[C@H](NC(=O)c3cc(C4CC4)on3)C[C@@H]2C)cn1 [compound 450, 5-cyclopropyl-N-((2S,4S)-1-((6-(isobutylamino)pyridin-3-yl)sulfonyl)-2-methylpiperidin-4-yl)isoxazole-3-carboxamide] | 1.1 | 3.48
CC(C)CNc1ccc(S(=O)(=O)N2CC[C@@H](NC(=O)c3cc(C4CC4)on3)C[C@H]2C)cn1 [compound 453, 5-cyclopropyl-N-((2R,4R)-1-((6-(isobutylamino)pyridin-3-yl)sulfonyl)-2-methylpiperidin-4-yl)isoxazole-3-carboxamide] | 7.19 | > 10
CC(C)CN(C)c1ccc(S(=O)(=O)N2CC[C@@H](NC(=O)c3cc(C4CC4)on3)C[C@H]2C)cn1 [compound 454, 5-cyclopropyl-N-((2R,4R)-1-((6-(isobutyl(methyl)amino)pyridin-3-yl)sulfonyl)-2-methylpiperidin-4-yl)isoxazole-3-carboxamide] | > 10 | > 10
COCCN(C)c1ccc(S(=O)(=O)N2CC[C@@H](NC(=O)c3cc(C4CC4)on3)C[C@H]2C)cn1 [compound 455, 5-cyclopropyl-N-((2R,4R)-1-((6-((2-methoxyethyl)(methyl)amino)pyridin-3-yl)sulfonyl)-2-methylpiperidin-4-yl)isoxazole-3-carboxamide] | > 10 | > 10
COCCNc1ccc(S(=O)(=O)N2CC[C@@H](NC(=O)c3cc(C4CC4)on3)C[C@H]2C)cn1 [compound 457, 5-cyclopropyl-N-((2R,4R)-1-((6-((2-methoxyethyl)amino)pyridin-3-yl)sulfonyl)-2-methylpiperidin-4-yl)isoxazole-3-carboxamide] | > 10 | > 10
C[C@@H]1C[C@H](NC(=O)c2cc(C3CC3)on2)CCN1S(=O)(=O)c1ccc(NCCN2CCOCC2)nc1 [compound 459, 5-cyclopropyl-N-((2R,4R)-2-methyl-1-((6-((2-morpholinoethyl)amino)pyridin-3-yl)sulfonyl)piperidin-4-yl)isoxazole-3-carboxamide] | 2.36 | 4.58
C[C@@H]1C[C@H](NC(=O)c2cc(C3CC3)on2)CCN1S(=O)(=O)c1ccc(N(C)CCN2CCOCC2)nc1 [compound 460, 5-cyclopropyl-N-((2R,4R)-2-methyl-1-((6-(methyl(2-morpholinoethyl)amino)pyridin-3-yl)sulfonyl)piperidin-4-yl)isoxazole-3-carboxamide] | > 10 | > 10
C[C@H]1C[C@@H](NC(=O)c2cc(C3CC3)on2)CCN1S(=O)(=O)c1ccc(N(C)CCN)nc1 [compound 461, N-((2S,4S)-1-((6-((2-aminoethyl)(methyl)amino)pyridin-3-yl)sulfonyl)-2-methylpiperidin-4-yl)-5-cyclopropylisoxazole-3-carboxamide] | 0.0142 | 3.85
C[C@@H]1C[C@H](NC(=O)c2cc(C3CC3)on2)CCN1S(=O)(=O)c1ccc(N(C)CCN)nc1 [compound 463, N-((2R,4R)-1-((6-((2-aminoethyl)(methyl)amino)pyridin-3-yl)sulfonyl)-2-methylpiperidin-4-yl)-5-cyclopropylisoxazole-3-carboxamide] | 0.163 | 4.33
C[C@@H]1C[C@H](NC(=O)c2cc(C3CC3)on2)CCN1S(=O)(=O)c1ccc(NCCN)nc1 [compound 464, N-((2R,4R)-1-((6-((2-aminoethyl)amino)pyridin-3-yl)sulfonyl)-2-methylpiperidin-4-yl)-5-cyclopropylisoxazole-3-carboxamide] | 0.0897 | 3.3
